From patent US20160108008A1, “Substituted N-(Tetrazol-5-yl)- and N-(Triazol-5-yl)arylcarboxamide Compounds and Their Use as Herbicides” (BASF SE, priority 2013, published 2016)
Marks after values point to notes of the source that are not given here.

Key:
Assay type in all cases: in vivo
Amaranthus retroflexus [1] = experiment: greenhouse post-emergence treatment, AMARE; details: scale 0-100
Excerpt: (§1) The culture containers used were plastic flowerpots containing loamy sand with approximately 3.0% of humus as the substrate. The seeds of the test plants were sown separately for each species.
(§2) For the post-emergence treatment, the test plants were first grown to a height of 3 to 15 cm, depending on the plant habit, and only then treated with the active ingredients which had been suspended or emulsified in water. For this purpose, the test plants were either sown directly and grown in the same containers, or they were first grown separately as seedlings and transplanted into the test containers a few days prior to treatment.
(§3) Depending on the species, the plants were kept at 10-25° C. or 20-35° C. The test period extended over 2 to 4 weeks. During this time, the plants were tended, and their response to the individual treatments was evaluated.
(§4) Evaluation was carried out using a scale from 0 to 100. 100 means no emergence of the plants, or complete destruction of at least the aerial moieties, and 0 means no damage, or normal course of growth. A good herbicidal activity is given at values of at least 70 and a very good herbicidal activity is given at values of at least 85.
(§5) The plants used in the greenhouse experiments belonged to the following species:
(§6) Following representative compounds of formula I according to Table 9 were used in post-emergence treatments in greenhouse experiments (values labeled with * result from pre-emergence experiments): […]

Chenopodium album = experiment: greenhouse post-emergence treatment, CHEAL; details: scale 0-100
Excerpt: as §1, §2, §3, §4, §5, §6

Abutilon theophrasti = experiment: greenhouse pre-emergence treatment, ABUTH; details: pre-emergence (value labeled *), scale 0-100
Excerpt: as §1
(§7) For the pre-emergence treatment, the active ingredients, which had been suspended or emulsified in water, were applied directly after sowing by means of finely distributing nozzles. The containers were irrigated gently to promote germination and growth and subsequently covered with transparent plastic hoods until the plants had rooted. This cover caused uniform germination of the test plants, unless this has been impaired by the active ingredients.
as §3, §4, §5, §6

Echinochloa crus-galli = experiment: greenhouse post-emergence treatment, ECHCG; details: scale 0-100
Excerpt: as §1, §2, §3, §4, §5, §6

Amaranthus retroflexus [2] = experiment: greenhouse pre-emergence treatment, AMARE; details: pre-emergence (value labeled *), scale 0-100
Excerpt: as §1, §7, §3, §4, §5, §6

Structure (SMILES) | [%] damage to weed VII (ECHCG) (Echinochloa crus-galli; 250 g/ha) [%] | [%] damage to weed III (AMARE) (Amaranthus retroflexus [1]; 250 g/ha) | [%] damage to weed VI (CHEAL) (Chenopodium album; 250 g/ha) [%] | [%] damage to weed III (AMARE) (Amaranthus retroflexus [2]; 250 g/ha) | further results
COc1c(Cl)cc(F)c(C(=O)Nc2nnnn2C)c1Cl [compound 9] |  |  |  |  | [%] damage to weed III (AMARE) (Amaranthus retroflexus [1]; 196 g/ha): 100%; [%] damage to weed VI (CHEAL) (Chenopodium album; 196 g/ha): 100%; [%] damage to weed I (ABUTH) (Abutilon theophrasti; 196 g/ha): 100* %
CCOc1c(Cl)cc(F)c(C(=O)Nc2nnnn2C)c1Cl [compound 18] | 98 | 85% | 100 |  | [%] damage to weed I (ABUTH) (Abutilon theophrasti; 250 g/ha): 100* %
CCCSc1c(Cl)cc(F)c(C(=O)Nc2ncnn2C)c1Cl [compound 22] | 100 | 100: % | 100 | 80* % | 
CCC[S+]([O-])c1c(Cl)cc(F)c(C(=O)Nc2nnnn2C)c1Cl (stereo not shown) [compound 23] | 98 | 100; % | 100 | 98* % | 
CCCS(=O)(=O)c1c(Cl)cc(F)c(C(=O)Nc2nnnn2C)c1Cl [compound 24] | 100 | 100; % | 100 | 100* % | 
CCCS(=O)(=O)c1c(Cl)cc(F)c(C(=O)Nc2ncnn2C)c1Cl [compound 26] |  |  |  |  | [%] damage to weed VII (ECHCG) (Echinochloa crus-galli; 500 g/ha): 98%; [%] damage to weed III (AMARE) (Amaranthus retroflexus [2]; 500 g/ha): 98* %; [%] damage to weed III (AMARE) (Amaranthus retroflexus [1]; 500 g/ha): 100; %; [%] damage to weed VI (CHEAL) (Chenopodium album; 500 g/ha): 100%
CCC[S+]([O-])c1c(Cl)cc(F)c(C(=O)Nc2ncnn2C)c1Cl (stereo not shown) [compound 27] |  |  |  |  | [%] damage to weed VII (ECHCG) (Echinochloa crus-galli; 244 g/ha): 98%; [%] damage to weed III (AMARE) (Amaranthus retroflexus [2]; 244 g/ha): 85* %; [%] damage to weed III (AMARE) (Amaranthus retroflexus [1]; 244 g/ha): 100; %; [%] damage to weed VI (CHEAL) (Chenopodium album; 244 g/ha): 100%
CCn1nnnc1NC(=O)c1c(F)cc(Cl)c([S+](C)[O-])c1Cl (stereo not shown) [compound 32] | 100 | 100; % | 100 | 100* % | 
CCSc1c(Cl)cc(Cl)c(C(=O)Nc2nnnn2C)c1Cl [compound 41] | 100 | 100; % | 100 | 100* % | 
CC[S+]([O-])c1c(Cl)cc(Cl)c(C(=O)Nc2nnnn2C)c1Cl (stereo not shown) [compound 60] |  |  |  |  | [%] damage to weed VII (ECHCG) (Echinochloa crus-galli; 500 g/ha): 98%; [%] damage to weed III (AMARE) (Amaranthus retroflexus [2]; 500 g/ha): 100* %; [%] damage to weed III (AMARE) (Amaranthus retroflexus [1]; 500 g/ha): 100; %; [%] damage to weed VI (CHEAL) (Chenopodium album; 500 g/ha): 100%
CCSc1c(Cl)cc(F)c(C(=O)Nc2nnnn2CC)c1Cl [compound 64] |  |  |  |  | [%] damage to weed VII (ECHCG) (Echinochloa crus-galli; 500 g/ha): 100%; [%] damage to weed III (AMARE) (Amaranthus retroflexus [2]; 500 g/ha): 100* %; [%] damage to weed III (AMARE) (Amaranthus retroflexus [1]; 500 g/ha): 100; %; [%] damage to weed VI (CHEAL) (Chenopodium album; 500 g/ha): 100%
COCCOc1c(Cl)cc(F)c(C(=O)Nc2nnnn2CCOC)c1Cl [compound 68] | 100 | 100; % | 100 | 100* % | 
CCS(=O)(=O)c1c(Cl)cc(Cl)c(C(=O)Nc2nnnn2C)c1Cl [compound 73] | 100 | 100; % | 100 | 98* % | 
COCCn1nnnc1NC(=O)c1c(Cl)cc(Cl)c(SC)c1Cl [compound 75] | 100 | 100; % | 100 | 100* % | 
